Source: patent publication US9884056B2, “Oral pharmaceutical dosage forms” (Durect Corporation, priority 2008, dated 2018)

Experiments:
[1] = In vitro volatilization test; type: physicochemical; details: 40 mg in petri dish on hot plate
Text: In order to further assess the abuse-resistance performance of abuse-resistant dosage forms produced according to the present invention, the following in vitro volatilization test was developed. In particular, intentional abuse of controlled release pharmaceutical dosage forms may alternatively be carried out by volatilization (smoking, or free-basing) techniques that can liberate active agent (in immediately active form) from commercially available controlled release carrier systems. Accordingly, a preliminary in vitro volatilization test was developed in order to assess: (1) whether a free base form of an active agent (in this case, oxycodone) was more volatile than the salt (HCl) form; and (2) whether abuse-resistant dosage forms produced according to the instant invention can prevent inhalation abuse through volatilization.
Each petri dish was fitted with a watch glass as a cover, and the covered test dishes were placed on a hot plate (setting 10). After 30 seconds each watch glass was replaced with a fresh watch glass, and this step was repeated three times (to obtain 4 time points). Any residue deposited on the bottom side of the test watch glasses was carefully transferred with an Alpha Swab (TX 761) into 40/60 ethanol/0.005M HCl solution, and the concentration of oxycodone solution was determined by HPLC. The observations taken during the test were as follows. […]

[2] = after an IV dose, PET; cited from earlier work
[3] = cited from earlier work

Question: For `COc1ccc2c3c1O[C@H]1C(=O)CC[C@@]4(O)[C@@H](C2)N(C)CC[C@]314.Cl` [oxycodone HCl], which “observation upon heating in volatilization test” value [1] is on record?
Answer: Its value is “extensive degradation and charring”.

Question: Which “brain clearance half life” value [2] does the source give for `COC(=O)C(c1ccccc1)C1CCCCN1` (centres unmarked) [^11C-labeled methylphenidate] here?
Answer: The value was 1.5 h.

Question: What about the “brain uptake Tmax” value [2] of the same compound?
Answer: Its value is less than 0.167 h.

Question: For `COc1ccc2c3c1O[C@H]1C(=O)CC[C@@]4(O)[C@@H](C2)N(C)CC[C@]314` [oxycodone free base form, oxycodone], which “observation upon heating in volatilization test” value [1] is on record?
Answer: Its value is “vaporizes/sublimes upon heating”.

Question: Which results are given for `COC(=O)C(c1ccccc1)C1CCCCN1` (racemic) [methylphenidate, dl-threo-methyl-2-phenyl-2-(2-piperidyl) acetate]?
Answer: dose deesterified to the inactive major metabolite, ritalinic acid ([3]; excreted in the urine): About 70%; Tmax following oral administration (mean) ([3]; immediate release, oral): 1.5 h; d-threo to l-threo plasma concentration ratio ([3]; in vivo): ~10:1; systemic half-life ([3]; in vivo): approximately 3 hours
